molecular target: T1, FXR (Homo sapiens, UniProt Q96RI1); assay: FXR antagonist screening by TR-FRET (LanthaScreen TR-FRET FXR co-activation assay kit); format: biochemical; conditions: Table 1.1, FXR antagonistic activity; TR-FRET with CDCA; geometric means of at least two independent runs
T1 construct: 5 μL of 20 nM FXR-LBD Complete Coregulator buffer G; purchased ThermoFisher PV4833
T1 sequence (Q96RI1 262-486 limits assumed): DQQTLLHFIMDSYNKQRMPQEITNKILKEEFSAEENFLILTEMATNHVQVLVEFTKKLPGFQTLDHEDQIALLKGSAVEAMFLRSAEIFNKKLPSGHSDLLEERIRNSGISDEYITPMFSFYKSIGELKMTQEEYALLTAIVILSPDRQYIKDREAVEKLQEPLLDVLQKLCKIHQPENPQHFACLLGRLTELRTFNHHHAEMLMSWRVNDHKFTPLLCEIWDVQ
Method in brief: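 FXR-LBD (20 nM working solution) mixed with compound, CDCA (200 μM working solution) as agonist, Fluorescein-SRC2-2 and Tb-anti-GST antibody in Coregulator buffer G; 10 h at room temperature. Coactivator recruitment read by TR-FRET, triplicate wells.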

| Compound | IC50 [µM] |
| --- | --- |
| CCOC(=O)c1oc2ccc(S(=O)(=O)N(CCc3ccccc3)c3ccccc3N3CC[N+](C)(C)CC3)cc2c1C [Example M10-90, 4-(2-((2-(ethoxycarbonyl)-3-methyl-N-phenethylbenzofuran)-5-sulfonylamino)phenyl)-1,1-dimethylpiperazin-1-ium] | 50 to 100 |
| CCOC(=O)c1oc2ccc(S(=O)(=O)N(CCc3ccccc3)c3ccccc3N3CCN(C(C)=O)CC3)cc2c1C [Example M10-91, ethyl 3-methyl-5-(N-(2-(4-acetylpiperazin-1-yl)phenyl)-N-phenethylsulfamoyl)benzofuran-2-carboxylate] | 50 to 100 |
| CCOC(=O)c1oc2ccc(S(=O)(=O)N(CCc3ccccc3)c3ccccc3N3CCN(S(C)(=O)=O)CC3)cc2c1C [Example M10-93, ethyl 3-methyl-5-(N-(2-(4-(methylsulfonyl)piperazin-1-yl)phenyl)-N-phenethylsulfamoyl)benzofuran-2-carboxylate] | 50 to 100 |
| CCOC(=O)c1oc2ccc(S(=O)(=O)N(CCc3ccccc3)c3ccccc3N3CCN(C(=O)CC(C)(C)C)CC3)cc2c1C [Example M10-94] | 50 to 100 |
| CCOC(=O)c1oc2ccc(S(=O)(=O)N(CCc3ccccc3)c3ccccc3N3CCN(Cc4ccccc4)CC3)cc2c1C [Example M10-95] | 50 to 100 |
| CCOC(=O)c1oc2ccc(S(=O)(=O)N(CCc3ccccc3)c3ccccc3N3CCN(C(=O)c4ccccc4)CC3)cc2c1C [Example M10-96] | 50 to 100 |
| CCOC(=O)c1oc2ccc(S(=O)(=O)N(CCc3ccccc3)Cc3ccccc3N3CCN(C)CC3)cc2c1C [Example M10-98, ethyl 3-methyl-5-(N-(2-(4-methylpiperazin-1-yl)benzyl)-N-phenethylsulfamoyl)benzofuran-2-carboxylate] | 50 to 100 |
| CCOC(=O)c1oc2ccc(S(=O)(=O)N(CCc3ccccc3)Cc3ccccc3N3CC[N+](C)(C)CC3)cc2c1C [Example M10-99, 4-(2-((2-(ethoxycarbonyl)-3-methyl-N-benzylethylbenzofuran)-5-sulfonylamino)phenyl)-1,1-dimethylpiperazin-1-ium] | 50 to 100 |
| CCOC(=O)c1oc2ccc(S(=O)(=O)N(CCc3ccccc3)Cc3ccccc3N3CCN(C(C)=O)CC3)cc2c1C [Example M10-100, ethyl 3-methyl-5-(N-(2-(4-acetylpiperazin-1-yl)benzyl)-N-phenethylsulfamoyl)benzofuran-2-carboxylate] | 50 to 100 |
| CCOC(=O)c1oc2ccc(S(=O)(=O)N(CCc3ccccc3)Cc3ccccc3N3CCN(S(C)(=O)=O)CC3)cc2c1C [Example M10-102, ethyl 3-methyl-5-(N-(2-(4-methanesulfonylpiperazin-1-yl)benzyl)-N-phenethylsulfamoyl)benzofuran-2-carboxylate] | 50 to 100 |
| CCOC(=O)c1oc2ccc(S(=O)(=O)N(CCc3ccccc3)Cc3ccccc3N3CCN(C(=O)CC(C)(C)C)CC3)cc2c1C [Example M10-103, ethyl 3-methyl-5-(N-(2-(4-(3,3-dimethylbutyryl)piperazin-1-yl)benzyl)-N-phenethylsulfamoyl)benzofuran-2-carboxylate] | 50 to 100 |
| CCOC(=O)c1oc2ccc(S(=O)(=O)N(CCc3ccccc3)Cc3ccccc3N3CCN(Cc4ccccc4)CC3)cc2c1C [Example M10-104, ethyl 3-methyl-5-(N-(2-(4-benzylpiperazin-1-yl)benzyl)-N-phenethylsulfamoyl)benzofuran-2-carboxylate] | 50 to 100 |
| CCOC(=O)c1oc2ccc(S(=O)(=O)N(CCc3ccccc3)Cc3ccccc3N3CCN(C(=O)c4ccccc4)CC3)cc2c1C [Example M10-105, ethyl 3-methyl-5-(N-(2-(4-benzoylpiperazin-1-yl)benzyl)-N-phenethylsulfamoyl)benzofuran-2-carboxylate] | 50 to 100 |

same assay, conditions: Table 1.2, FXR antagonistic activity; TR-FRET with CDCA; geometric means of at least two independent runs

| Compound | IC50 [µM] |
| --- | --- |
| CCOC(=O)c1oc2ccc(S(=O)(=O)N(CCc3ccccc3)c3ccccc3N3CCN(C(=O)c4ccc(C)cc4)CC3)cc2c1C [Example M10-106, ethyl 3-methyl-5-(N-(2-(4-(4-methylbenzoyl)piperazin-1-yl)phenyl)-N-phenethylsulfamoyl)benzofuran-2-carboxylate] | 50 to 100 |
| CCOC(=O)c1oc2ccc(S(=O)(=O)N(CCc3ccccc3)c3ccccc3N3CCN(C(=O)c4ccccc4C)CC3)cc2c1C [Example M10-107, Ethyl 3-methyl-5-(N-(2-(4-(2-methylbenzoyl)piperazin-1-yl)phenyl)-N-phenethylsulfamoyl)benzofuran-2-carboxylate] | 50 to 100 |
| CCOC(=O)c1oc2ccc(S(=O)(=O)N(CCc3ccccc3)c3ccccc3N3CCN(C(=O)c4cccc(C)c4)CC3)cc2c1C [Example M10-108, ethyl 3-methyl-5-(N-(2-(4-(3-methylbenzoyl)piperazin-1-yl)phenyl)-N-phenethylsulfamoyl)benzofuran-2-carboxylate] | 50 to 100 |
| CCOC(=O)c1oc2ccc(S(=O)(=O)N(CCc3ccccc3)c3ccccc3N3CCN(C(=O)c4ccc(NC(C)=O)cc4)CC3)cc2c1C [Example M10-109, Ethyl 5-(N-(2-(4-(4-Acetylaminobenzoyl)piperazin-1-yl)phenyl)-N-phenethylsulfamoyl)-3-methyl benzofuran-2-carboxylate] | 50 to 100 |
| CCOC(=O)c1oc2ccc(S(=O)(=O)N(CCc3ccccc3)c3ccccc3N3CCN(C(=O)c4ccc(C(F)(F)F)cc4)CC3)cc2c1C [Example M10-110] | 50 to 100 |
| CCOC(=O)c1oc2ccc(S(=O)(=O)N(CCc3ccccc3)c3ccccc3N3CCN(C(=O)c4ccc(C#N)cc4)CC3)cc2c1C [Example M10-111] | 50 to 100 |
| CCOC(=O)c1oc2ccc(S(=O)(=O)N(CCc3ccccc3)c3ccccc3N3CCN(C(=O)c4ccc(F)cc4)CC3)cc2c1C [Example M10-112, Ethyl 5-(N-(2-(4-(4-fluorobenzoyl)piperazin-1-yl)phenyl)-N-phenethylsulfamoyl)-3-methylbenzofuran-2-carboxylate] | 50 to 100 |
| CCOC(=O)c1oc2ccc(S(=O)(=O)N(CCc3ccccc3)c3ccccc3N3CCN(C(=O)c4ccc(NC(=O)OC(C)(C)C)cc4)CC3)cc2c1C [Example M10-113, Ethyl-(N-(2-(4-(4-((tert-butoxycarbonyl)amino)benzoyl)piperazin-1-yl)phenyl)-N-phenethylsulfamoyl)-3-methylbenzofuran-2-carboxylate] | 50 to 100 |
| CCOC(=O)c1oc2ccc(S(=O)(=O)N(CCc3ccccc3)c3ccccc3N3CCN(C(=O)c4ccc([N+](=O)[O-])cc4)CC3)cc2c1C [Example M10-114, Ethyl 3-methyl-5-(N-(2-(4-(4-nitrobenzoyl)piperazin-1-yl)phenyl)-N-phenethylsulfamoyl)benzofuran-2-carboxylate] | 50 to 100 |
| CCOC(=O)c1oc2ccc(S(=O)(=O)N(CCc3ccccc3)c3ccccc3N3CCN(C(=O)c4ccc(C(C)=O)cc4)CC3)cc2c1C [Example M10-115, Ethyl 5-(N-(2-(4-(4-acetylbenzoyl)piperazin-1-yl)phenyl)-N-phenethylsulfamoyl)-3-methylbenzofuran-2-carboxylate] | 50 to 100 |
| CCOC(=O)c1oc2ccc(S(=O)(=O)N(CCc3ccccc3)c3ccccc3N3CCN(C(=O)c4cccnc4)CC3)cc2c1C [Example M10-116, Ethyl 3-methyl-5-(N-(2-(4-nicotinoylpiperazin-1-yl)phenyl)-N-phenethylsulfamoyl)benzofuran-2-carboxylate] | 50 to 100 |
| CCOC(=O)c1oc2ccc(S(=O)(=O)N(CCc3ccccc3)c3ccccc3N3CCN(C(=O)c4ccccn4)CC3)cc2c1C [Example M10-117, ethyl 3-methyl-5-(N-phenethyl-N-(2-(4-pyridineformylpiperazin-1-yl)phenyl)sulfamoyl)benzofuran-2-carboxylate] | 50 to 100 |
| CCOC(=O)c1oc2ccc(S(=O)(=O)N(CCc3ccccc3)c3ccccc3N3CCN(C(=O)c4cccs4)CC3)cc2c1C [Example M10-118, Ethyl 3-methyl-5-(N-phenethyl-N-(2-(4-(thiophene-2-carbonyl)piperazin-1-yl)phenyl)sulfamoyl)benzofuran-2-carboxylate] | 50 to 100 |
| CCOC(=O)c1oc2ccc(S(=O)(=O)N(CCc3ccccc3)c3ccccc3N3CCN(C(=O)c4ccsc4)CC3)cc2c1C [Example M10-119, Ethyl 3-methyl-5-(N-phenethyl-N-(2-(4-(thiophene-3-carbonyl)piperazin-1-yl)phenyl)sulfamoyl)benzofuran-2-carboxylate] | 50 to 100 |
| C/C=C/C(=O)N1CCN(c2ccccc2N(CCc2ccccc2)S(=O)(=O)c2ccc3oc(C(=O)OCC)c(C)c3c2)CC1 [Example M10-120, (E)ethyl-5-(N-(2-(4-(but-2-enoyl)piperazin-1-yl)phenyl)-N-phenethylsulfamoyl)-3-methylbenzofuran-2-carboxylate] | 50 to 100 |
| CCOC(=O)c1oc2ccc(S(=O)(=O)N(CCc3ccccc3)c3ccccc3N3CCN(C(=O)c4ccco4)CC3)cc2c1C [Example M10-121, Ethyl 5-(N-(2-(4-(furan-2-carbonyl)piperazin-1-yl)phenyl)-N-phenethylsulfamoyl)-3-methylbenzofuran-2-carboxylate] | 50 to 100 |
| CCOC(=O)c1oc2ccc(S(=O)(=O)N(CCc3ccccc3)c3ccccc3N3CCN(C(=O)C4CCCC4)CC3)cc2c1C [Example M10-122, Ethyl 5-(N-(2-(4-(cyclopentanecarbonyl)piperazin-1-yl)phenyl)-N-phenethylsulfamoyl)-3-methylbenzofuran-2-carboxylate] | 50 to 100 |

Source: patent US20240239775A1, “FXR REGULATOR, PREPARATION METHOD THEREFOR, PHARMACEUTICAL COMPOSITION THEREOF AND USE THEREOF” (QINGDAO RUIJI MEDICAL TECHNOLOGY CO., LTD., priority 2021, published 2024)
